According to patent US20230279024A1, “TRIAZINE COMPOUND AND COMPOSITION AND USE THEREOF” (BEIJING FINDCURE BIOSCIENCES, LTD., priority 2020, published 2023):
pIC50: −log10 of the molar value.

Columns and labels:
CYP3A4 [1] = target: T1, CYP3A4 (Homo sapiens (Human), UniProt P08684); details: hepatocytes, 2 days, 10 μM
Procedure: (§1) Cryopreservation of human primary hepatocytes was resuscitated in medium after take out from liquid nitrogen. […] Plates were incubated at 37° C. and 5% CO2 for 4-6 hours to confirm the formation of monolayer cells attached to the wall. Then the adherent culture medium was changed into hepatocyte culture medium and the culture was continued overnight.
After the test compounds and positive control inducers were co-incubated with cells, the incubation medium was removed. […] After the samples were extracted and processed, the generation of metabolites and the kinase activities of CYP1A2, 2B6 and 3A4 was quantitatively detected by LC-MS/MS, respectively.
The induction of test substance on each subenzyme was determined by detecting the generation rate of metabolites of CYP450 subenzyme substrates. The relative activity of each subenzyme was expressed as a percentage of the relative blank control, and the data were calculated according to the following formula:
Fold of induction=sample subenzyme activity/blank subenzyme activity
Relative positive control activity (PC %)=(Fold of induction of sample group—Fold of induction of blank group)/(Fold of induction of positive control group—Fold of induction of blank group)×100

Ba/F3 AXL cells = experiment: Cell activity test: growth inhibition of Ba/F3 AXL cell line (CTG, 72 h); type: cell-based; details: Mus musculus, BaF3
Procedure: This experiment was conducted by detecting the inhibitory effect of compounds on the growth of Ba/F3 AXL cell line and Ba/F3 parental cell line. Cells in logarithmic growth stage were harvested and counted by platelet counter. Trypan blue rejection method was used to detect cell viability to ensure that the cell viability was above 90%. Adjust cell concentration; 90 μL cell suspension was added to 96-well plates, respectively; Cells in 96-well plates were cultured overnight at 37° C., 5% CO2 and 95% humidity. A 10-fold drug solution was prepared, with the highest concentration of 10 μM, and a total of 9 concentrations were diluted at 3.16 times the ratio. 10 μL drug solution was added to each well of the 96-well plate inoculated with cells, and three wells were set for each drug concentration; 96-well plates were incubated at 37° C., 5% CO2 and 95% humidity for 72 h, and CTG analysis was performed. Thaw the CTG reagent and balance the cell plates to room temperature for 30 minutes. Add the same volume of CTG solution to each well and vibrate on a fixed-rail shaker for 5 minutes to crack the cells. Place the cell plates at room temperature for 20 minutes to stabilize the cold light signal and read the cold light value. The GraphPad Prism 5.0 software was used to analyze the data, and the nonlinear S-curve regression was used to fit the data to obtain the dose-effect curve, and the IC50 value was calculated accordingly. Cell survival rate (%)=(Lum drug to be tested −Lum culture medium control)/(Lum cell control−Lum culture medium control)×100%.

CYP3A4 [2] = target: T1, CYP3A4; details: hepatocytes, 2 days, 10 μM; remark: listed apart in the source
Procedure: as §1
After the test compound and positive control inducer were co-incubated with cells, the medium was removed and mercaptoethanol was added for cell lysis. Total RNA in cells was extracted with RNA extraction kit, and then transcribed into cDNA with cDNA reverse transcription kit. The 10 μL cDNA template was taken and analyzed on the fluorescence quantitative PCR instrument to obtain the Ct value.
The gene expression data were corrected by internal reference 18S, and the relative expression differences were determined by the method of ΔΔCt commonly used in fluorescence quantitative PCR.
The ΔCt, ΔΔCt and relative expression difference values of the target genes were calculated according to the following formula:
ΔCt=Ct value of target gene−Ct value of internal reference 18S
ΔΔCt=ΔCt of experimental group or positive control group−ΔCt of blank control group
Relative expression difference (fold of induction)=2−ΔΔ^Ct

CYP3A4/5 = experiment: Inhibition of human liver microsomes CYP450, 3A4/5; type: in vitro ADME; details: compounds 10 μM (positive control: concentration not given)
AXL (h) kinase = AXL (h) kinase (Homo sapiens (Human), UniProt P30530); experiment: AXL (h) kinase activity test (EZ Reader mobility shift, FLPeptide30); type: biochemical; details: ATP 100 μM, AXL 1 nM
AXL (h) kinase, sequence (P30530 473-894): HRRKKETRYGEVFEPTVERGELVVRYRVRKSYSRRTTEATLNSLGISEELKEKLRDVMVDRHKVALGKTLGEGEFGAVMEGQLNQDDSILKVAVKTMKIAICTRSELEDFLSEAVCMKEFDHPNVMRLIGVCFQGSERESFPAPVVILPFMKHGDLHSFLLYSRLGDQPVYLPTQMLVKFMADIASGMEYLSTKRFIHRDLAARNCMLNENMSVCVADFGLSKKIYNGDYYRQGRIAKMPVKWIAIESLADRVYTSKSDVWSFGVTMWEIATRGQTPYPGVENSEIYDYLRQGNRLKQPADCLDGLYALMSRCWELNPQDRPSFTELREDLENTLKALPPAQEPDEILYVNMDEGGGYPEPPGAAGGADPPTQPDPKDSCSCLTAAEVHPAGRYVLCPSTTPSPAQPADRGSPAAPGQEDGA
Procedure: The effect of the disclosed compounds as protein kinase inhibitors can be evaluated by the following experiments. The AXL (h) kinase activity of the compounds of the invention is tested by the following methods:
Reagents used in the experiment were AXL (Carna Bioscience, Cat No.: 08-107) and FLPeptide30 (PerkinElmer, Cat No.: 760430). The instruments involved were thermotank (Thermo Scientific), oscillator (QILINBEIER), EZ Reader (PerkinElmer, Cat No.: 122919), Non-contact stage pipetting system (Labcyte Inc., Cat No.: Echo 550), and non-contact nanoliter pipetting system (TECAN, Cat No.: EVO200).
Compound dilution: 1) Dissolve the compound in DMSO to the appropriate concentration; 2) Using TECAN EVO200 to dilute 10 concentrations in 384 microplates by three times gradient, the highest concentration is 1 mM; Echo550 was used to transfer 20 nL solution from the dilution plate to the test plate.
2) Add 15 μL solution 1 to each well of the test plate and incubate at room temperature for 30 minutes.
4) Add 5 μL solution 2 to start the reaction, and the final volume of each well is 20 μL.
5) Incubated at 25° C. for 90 min, and then added 75 μL stop solution (containing 0.5 M EDTA) to terminate the reaction.
6) The sample of each well was analyzed using EZ reader.
1) Based on the measured conversion rate (CR), the Remaining Activity (%) of the kinase was calculated according to the following function:
2) XLFit (Equation 201) software was used to fit IC50.
The above methods can be used to obtain the inhibitory IC50 and/or inhibitory constant Ki.

CYP2D6 = CYP2D6 (Homo sapiens (Human), UniProt P10635); experiment: Inhibition of human liver microsomes CYP450, 2D6; type: in vitro ADME; details: compounds 10 μM (positive control: concentration not given)
CYP2D6, sequence (P10635 whole entry): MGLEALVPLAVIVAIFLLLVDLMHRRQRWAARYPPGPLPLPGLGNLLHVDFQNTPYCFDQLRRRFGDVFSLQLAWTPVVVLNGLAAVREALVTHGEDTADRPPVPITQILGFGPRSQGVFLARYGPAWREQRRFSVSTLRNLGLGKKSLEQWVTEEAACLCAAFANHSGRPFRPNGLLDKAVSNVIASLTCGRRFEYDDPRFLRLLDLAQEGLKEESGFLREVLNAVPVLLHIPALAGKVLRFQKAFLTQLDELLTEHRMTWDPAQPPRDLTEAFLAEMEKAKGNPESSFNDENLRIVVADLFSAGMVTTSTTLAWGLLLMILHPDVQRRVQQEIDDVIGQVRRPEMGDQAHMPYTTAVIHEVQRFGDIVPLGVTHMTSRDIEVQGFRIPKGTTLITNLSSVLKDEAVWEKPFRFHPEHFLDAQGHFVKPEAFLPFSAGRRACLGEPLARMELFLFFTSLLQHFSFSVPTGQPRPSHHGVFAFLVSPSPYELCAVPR

CYP1A2 = CYP1A2 (Homo sapiens (Human), UniProt P05177); details: microsomes, 10 µM
CYP1A2, sequence (P05177 whole entry): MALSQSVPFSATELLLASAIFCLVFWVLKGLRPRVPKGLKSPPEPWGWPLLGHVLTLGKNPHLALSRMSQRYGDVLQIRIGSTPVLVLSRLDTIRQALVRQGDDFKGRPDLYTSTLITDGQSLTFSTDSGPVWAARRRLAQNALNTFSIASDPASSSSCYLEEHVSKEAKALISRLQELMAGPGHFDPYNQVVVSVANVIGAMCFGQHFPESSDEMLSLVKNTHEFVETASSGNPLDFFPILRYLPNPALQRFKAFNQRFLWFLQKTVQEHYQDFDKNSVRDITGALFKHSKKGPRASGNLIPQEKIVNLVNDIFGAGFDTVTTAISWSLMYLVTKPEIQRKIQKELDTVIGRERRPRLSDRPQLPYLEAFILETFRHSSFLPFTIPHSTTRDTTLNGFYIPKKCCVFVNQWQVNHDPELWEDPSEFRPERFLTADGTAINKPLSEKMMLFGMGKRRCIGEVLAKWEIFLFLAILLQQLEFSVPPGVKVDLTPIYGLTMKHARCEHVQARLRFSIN

Enzymatic activity CYP3A4 Fold of induction (CYP3A4 [1])	pIC50 (Ba/F3 AXL cells)	Gene expression CYP3A4 Fold of induction (CYP3A4 [2])	Inhibitory rate (%) 3A4/5 (CYP3A4/5)	pIC50 (AXL (h) kinase)	Inhibitory rate (%) 2D6 (CYP2D6)	Inhibitory rate (%) 1A2 (CYP1A2)	Structure (SMILES)
1.02	> 8.30	1.31	No inhibition	7.30 to 8.30			Nc1ncnn2c1c(-c1ccc(NC(=O)c3c4n(n(-c5ccccc5)c3=O)CCOC4)cc1F)cc2[C@H]1CC[C@H](O)CC1 [example 22, N-(4-(4-amino-7-((1r,4r)-4-hydroxycyclohexyl)pyrrolo[2,1-f][1,2,4]triazin-5-yl)-3-fluorophenyl)-2-oxo-1-phenyl-2,4,6,7-tetrahydro-1H-pyrazolo[5,1-c][1,4]oxazine-3-carboxamide]
	> 8.30		No inhibition		No inhibition		CC(C)C(=O)N1CCC(c2cc(-c3ccc(NC(=O)c4c5n(n(-c6ccccc6)c4=O)CCCC5)nc3)c3c(N)ncnn23)CC1 [example 11, N-(5-(4-amino-7-(1-isobutyrylpiperidin-4-yl)pyrrolo[2,1-f][1,2,4]triazin-5-yl)pyridin-2-yl)-2-oxo-1-phenyl-1,2,4,5,6,7-hexahydropyrazolo[1,5-a]pyridine-3-carboxamide]
	> 8.30		No inhibition		No inhibition	No inhibition	Nc1ncnn2c(C3CCC(O)CC3)cc(-c3ccc(NC(=O)c4c5n(n(-c6ccccc6)c4=O)CCCC5)nc3)c12 (stereo not drawn) [example 21, N-(5-(4-amino-7-(4-hydroxycyclohexyl)pyrrolo[2,1-f][1,2,4]triazin-5-yl)pyridin-2-yl)-2-oxo-1-phenyl-1,2,4,5,6,7-hexahydropyrazolo[1,5-a]pyridine-3-carboxamide]
	> 8.30			7.30 to 8.30	No inhibition		CC(C)C(=O)N1CCC(c2cc(-c3ccc(NC(=O)c4c5n(n(-c6ccccc6)c4=O)CCOC5)cc3F)c3c(N)ncnn23)CC1 [example 8, N-(4-(4-amino-7-(1-isobutyrylpiperidin-4-yl)pyrrolo[2,1-f][1,2,4]triazin-5-yl)-3-fluorophenyl)-2-oxo-1-phenyl-2,4,6,7-tetrahydro-1H-pyrazolo[5,1-c][1,4]oxazine-3-carboxamide]
1.26	> 8.30	276	No inhibition	7.30 to 8.30			CC(C)C(=O)N1CCC(c2cc(-c3ccc(NC(=O)c4c5n(n(-c6ccccc6)c4=O)CCCC5)cc3F)c3c(N)ncnn23)CC1 [example 16, N-(4-(4-amino-7-(1-isobutyrylpiperidin-4-yl)pyrrolo[2,1-f][1,2,4]triazin-5-yl)-3-fluorophenyl)-2-oxo-1-phenyl-1,2,4,5,6,7-hexahydropyrazolo[1,5-a]pyridine-3-carboxamide]
0.801	> 8.30	4.40	No inhibition	7.30 to 8.30			CC(C)C(=O)N1CCC(c2cc(-c3ccc(NC(=O)c4c5n(n(-c6ccccc6)c4=O)CCOC5)cc3)c3c(N)ncnn23)CC1 [example 3, N-(4-(4-amino-7-(1-isobutyrylpiperidin-4-yl)pyrrolo[2,1-f][1,2,4]triazin-5-yl)phenyl)-2-oxo-1-phenyl-2,4,6,7-tetrahydro-1H-pyrazolo[5,1-c][1,4]oxazine-3-carboxamide]
0.913	> 8.30	0.944	No inhibition	7.30 to 8.30			Nc1ncnn2c1c(-c1ccc(NC(=O)c3c4n(n(-c5ccccn5)c3=O)CCOC4)cc1F)cc2[C@H]1CC[C@H](O)CC1 [example 31, N-(4-(4-amino-7-((1r,4r)-4-hydroxycyclohexyl)pyrrolo[2,1-f][1,2,4]triazin-5-yl)-3-fluorophenyl)-2-oxo-1-(pyridin-2-yl)-2,4,6,7-tetrahydro-1H-pyrazolo[5,1-c][1,4]oxazine-3-carboxamide]
